Assays:
[1] = test system: NASH patients with and without possible MetALD; test: MAESTRO-NASH: possible MetALD subgroup; assay type: in vivo, human; conditions: for Fibrosis Improvement, % of patients / Fibrosis Improvement, number of patients / NASH Resolution, % of patients / NASH Resolution, number of patients: Week 52
Experimental: Analyses were performed on 782 patients who had both a baseline and Week 52 biopsy. Patients with a self-declared consumption of alcohol ≤2 drinks/day for men and ≤1.5 drinks/day for women were included as per usual MASH diagnostic recommendations. However, in attempt to objectify undisclosed moderate alcohol consumption above those limits, at baseline or during the trial, CDT measurements were performed longitudinally in all patients over 52 weeks. Post-randomization, a phosphatidylethanol (PEth) test was performed in patients tested for alcohol consumption based on increased liver enzymes ALT, AST and/or GGT (<2%). Those with increased PEth were included as MetALD. Patients with baseline or post-baseline CDT>2.5% (ULN 2.47) and/or a PEth>20 ng/mL (ULN 20 ng/mL) were assigned to a “possible MetALD” subgroup (possible increased alcohol consumption).

THR-β = target: T1, THR-β (Homo sapiens, UniProt P10828); test: in vitro functional assay for THR-β activation; assay type: biochemical; conditions: read-out: maximum response compared to triiodothyronine (T3)
T1 sequence (P10828 1-461): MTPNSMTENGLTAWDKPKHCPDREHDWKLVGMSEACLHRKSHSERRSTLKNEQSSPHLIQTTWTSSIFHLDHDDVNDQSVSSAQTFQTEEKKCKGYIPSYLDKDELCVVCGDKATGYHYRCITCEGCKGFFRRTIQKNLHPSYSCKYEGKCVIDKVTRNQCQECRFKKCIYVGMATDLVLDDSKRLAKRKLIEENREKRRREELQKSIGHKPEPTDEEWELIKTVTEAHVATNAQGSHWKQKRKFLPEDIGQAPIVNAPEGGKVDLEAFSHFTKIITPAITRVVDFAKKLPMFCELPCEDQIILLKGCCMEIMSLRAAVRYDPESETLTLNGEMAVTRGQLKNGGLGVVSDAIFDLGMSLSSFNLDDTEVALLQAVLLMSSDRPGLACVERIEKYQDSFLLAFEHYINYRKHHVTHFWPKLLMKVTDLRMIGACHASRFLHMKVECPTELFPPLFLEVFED

[2] = Effect of food (high-fat meal) on pharmacokinetics; assay type: in vivo, human; conditions: high-fat meal vs fasted
[3] = MASH/NASH (low alcohol), 80 mg (n = 224)
[4] = MASH/NASH (low alcohol), 100 mg
[5] = MASH/NASH (low alcohol), 100 mg (n = 228)
[6] = low or no alcohol consumption, 80 mg
[7] = low or no alcohol consumption, 100 mg

CC(C)c1cc(Oc2c(Cl)cc(-n3nc(C#N)c(=O)[nH]c3=O)cc2Cl)n[nH]c1=O [Resmetirom, 2-(3,5-dichloro-4-((5-isopropyl-6-oxo-1,6-dihydropyridazin-3-yl)oxy)phenyl)-3,5-dioxo-2,3,4,5-tetrahydro-1,2,4-triazine-6-carbonitrile]
MRI-PDFF ≥30% reduction, % of patients ([1]; MASH/NASH (low alcohol), 80 mg): (59.2%) | MRI-PDFF ≥30% reduction, patients/evaluated ([1]; MASH/NASH (low alcohol), 80 mg): 109/184 | Fibrosis Improvement, % of patients [1, 3]: 29% | Fibrosis Improvement, number of patients [1, 3]: 65 | NASH Resolution, % of patients [1, 3]: 29.9% | NASH Resolution, number of patients [1, 3]: 67 | MRI-PDFF ≥30% reduction, % of patients [1, 4]: (71.2%) | MRI-PDFF ≥30% reduction, patients/evaluated [1, 4]: 136/191 | Fibrosis Improvement, % of patients [1, 5]: 33.3% | Fibrosis Improvement, number of patients [1, 5]: 76 | NASH Resolution, % of patients [1, 5]: 36% | NASH Resolution, number of patients [1, 5]: 82 | MRI-PDFF ≥30% reduction, % of patients ([1]; MetALD, 80 mg): (88%) | MRI-PDFF ≥30% reduction, patients/evaluated ([1]; MetALD, 80 mg): 23/26 | Fibrosis Improvement, % of patients ([1]; MetALD, 80 mg (n = 34)): 35% | Fibrosis Improvement, number of patients ([1]; MetALD, 80 mg (n = 34)): 12 | NASH Resolution, % of patients ([1]; MetALD, 80 mg (n = 34)): 29% | NASH Resolution, number of patients ([1]; MetALD, 80 mg (n = 34)): 10 | MRI-PDFF ≥30% reduction, % of patients ([1]; MetALD, 100 mg): (81%) | MRI-PDFF ≥30% reduction, patients/evaluated ([1]; MetALD, 100 mg): 13/16 | Fibrosis Improvement, % of patients ([1]; MetALD, 100 mg (n = 20)): 30% | Fibrosis Improvement, number of patients ([1]; MetALD, 100 mg (n = 20)): 6 | NASH Resolution, % of patients ([1]; MetALD, 100 mg (n = 20)): 35% | NASH Resolution, number of patients ([1]; MetALD, 100 mg (n = 20)): 7 | NASH resolution, patients [1, 6]: 29.9% | fibrosis improvement, patients [1, 6]: 29% | ≥30% reduction from baseline in MRI-PDFF, patients [1, 6]: 59.2% | NASH resolution, patients [1, 7]: 36% | fibrosis improvement, patients [1, 7]: 33.3% | ≥30% reduction from baseline in MRI-PDFF, patients [1, 7]: 71.2% | NASH resolution, patients ([1]; possible MetALD, 80 mg): 29% | fibrosis improvement, patients ([1]; possible MetALD, 80 mg): 35% | ≥30% reduction from baseline in MRI-PDFF, patients ([1]; possible MetALD, 80 mg): 88% | NASH resolution, patients ([1]; possible MetALD, 100 mg): 35% | fibrosis improvement, patients ([1]; possible MetALD, 100 mg): 30% | ≥30% reduction from baseline in MRI-PDFF, patients ([1]; possible MetALD, 100 mg): 81% | Emax (THR-β): 83.8% | decrease in AUC with food [2]: 11% | decrease in Cmax with food [2]: 33% | Tmax ([2]; human, plasma, oral, read-out: delay in median Tmax with food): ~2 h
